In patent publication US20160272626A1, “PYRAZINE DERIVATIVES” (HOFFMANN-LA ROCHE INC., priority 2012, published 2016):
Where a name gives a salt, the structure may show the parent alone.

Columns and labels:
rat TAAR1 = target: T1, rat TAAR1 (Rattus norvegicus, UniProt Q923Y9); assay: Radioligand binding assay on rat TAAR1; details: for Ki: rat TAAR1, HEK-293 membranes, second value of cell mouse/rat
T1 construct: expressed in transfected cells; membrane preparation
Experimental: (§1) For the construction of expression plasmids the coding sequences of human, rat and mouse TAAR 1 were amplified from genomic DNA essentially as described by Lindemann et al.. The Expand High Fidelity PCR System (Roche Diagnostics) was used with 1.5 mM Mg^2+ and purified PCR products were cloned into pCR2.1-TOPO cloning vector (Invitrogen) following the instructions of the manufacturer. PCR products were subcloned into the pIRESneo2 vector (BD Clontech, Palo Alto, Calif.), and expression vectors were sequence verified before introduction in cell lines.
(§2) HEK293 cells (ATCC # CRL-1573) were cultured essentially as described by Lindemann et al. (2005). For the generation of stably transfected cell lines HEK293 cells were transfected with the pIRESneo2 expression plasmids containing the TAAR coding sequences (described above) with Lipofectamine 2000 (Invitrogen) according to the instructions of the manufacturer, and 24 hrs post transfection the culture medium was supplemented with 1 mg/ml G418 (Sigma, Buchs, Switzerland). After a culture period of about 10 d clones were isolated, expanded and tested for responsiveness to trace amines (all compounds purchased from Sigma) with the cAMP Biotrak Enzyme immunoassay (EIA) System (Amersham) following the non-acetylation EIA procedure provided by the manufacturer.
Radioligand Binding Assay on Rat TAAR1
(§3) Membrane Preparation and Radioligand Binding.
HEK-293 cells stably expressing rat TAAR1 were maintained at 37° C. and 5% CO2 in DMEM high glucose medium, containing fetal calf serum (10%, heat inactivated for 30 min at 56° C.), penicillin/streptomycin (1%), and 375 μg/ml geneticin (Gibco). Cells were released from culture flasks using trypsin/EDTA, harvested, washed twice with ice-cold PBS (without Ca^2+ and Mg^2+), pelleted at 1,000 rpm for 5 min at 4° C., frozen and stored at −80° C. Frozen pellets were suspended in 20 ml HEPES-NaOH (20 mM, pH 7.4) containing 10 mM EDTA and homogenized with a Polytron (PT 6000, Kinematica) at 14,000 rpm for 20 s. The homogenate was centrifuged at 48,000×g for 30 min at 4° C. Subsequently, the supernatant was removed and discarded, and the pellet resuspended in 20 ml HEPES-NaOH (20 mM, pH 7.4) containing 0.1 mM EDTA using the Polytron (20 s at 14,000 rpm). This procedure was repeated and the final pellet resuspended in HEPES-NaOH containing 0.1 mM EDTA and homogenized using the Polytron. Typically, aliquots of 2 ml membrane portions were stored at −80° C. With each new membrane batch the dissociation constant (Kd) was determined via a saturation curve. […] Nonspecific binding was defined as the amount of ^3[H]—(S)-4-[(ethyl-phenyl-amino)-methyl]-4,5-dihydro-oxazol-2-ylamine bound in the presence of 10 μM unlabeled ligand. All compounds were tested at a broad range of concentrations (10 pM to 10 μM) in duplicates. The test compounds (20 μl/well) were transferred into a 96 deep well plate (TreffLab), and 180 μl of HEPES-NaOH (20 mM, pH 7.4) containing MgCl2 (10 mM) and CaCl2 (2 mM) (binding buffer), 300 μl of the radioligand ^3[H]—(S)-4-[(ethyl-phenyl-amino)-methyl]-4,5-dihydro-oxazol-2-ylamine at a concentration of 3.3×Kd in nM and 500 μl of the membranes (resuspended at 50 μg protein per ml) added. The 96 deep well plates were incubated for 1 hr at 4° C. Incubations were terminated by rapid filtration through Unifilter-96 plates (Packard Instrument Company) and glass filters GF/C (Perkin Elmer) presoaked for 1 hr in polyethylenimine (0.3%) and washed 3 times with 1 ml of cold binding buffer. After addition of 45 μl of Microscint 40 (PerkinElmer) the Unifilter-96 plate was sealed and after 1 hr the […] counted using a TopCount Microplate Scintillation Counter (Packard Instrument Company).

mouse TAAR1 = target: T2, mouse TAAR1 (Mus musculus, UniProt Q923Y8); assay: Radioligand binding assay on mouse TAAR1; details: for Ki: mouse TAAR1, HEK-293 membranes, first value of cell mouse/rat
T2 construct: expressed in transfected cells; membrane preparation
Experimental: as §1, §2
Radioligand Binding Assay on Mouse TAAR1
as §3
HEK-293 cells stably expressing mouse TAAR1 were maintained at 37° C. and 5% CO2 in DMEM high glucose medium, containing fetal calf serum (10%, heat inactivated for 30 min at 56° C.), penicillin/streptomycin (1%), and 375 μg/ml geneticin (Gibco). Cells were released from culture flasks using trypsin/EDTA, harvested, washed twice with ice-cold PBS (without Ca^2+ and Mg^2+), pelleted at 1,000 rpm for 5 min at 4° C., frozen and stored at −80° C. Frozen pellets were suspended in 20 ml HEPES-NaOH (20 mM, pH 7.4) containing 10 mM EDTA and homogenized with a Polytron (PT 6000, Kinematica) at 14,000 rpm for 20 s. The homogenate was centrifuged at 48,000×g for 30 min at 4° C. Subsequently, the supernatant was removed and discarded, and the pellet resuspended in 20 ml HEPES-NaOH (20 mM, pH 7.4) containing 0.1 mM EDTA using the Polytron (20 s at 14,000 rpm). This procedure was repeated and the final pellet resuspended in HEPES-NaOH containing 0.1 mM EDTA and homogenized using the Polytron. Typically, aliquots of 2 ml membrane portions were stored at −80° C. With each new membrane batch the dissociation constant (Kd) was determined via a saturation curve. The TAAR1 radioligand ^3[H]—(S)-4-[(ethyl-phenyl-amino)-methyl]-4,5-dihydro-oxazol-2-ylamine (described in WO 2008/098857) was used at a concentration equal to the calculated Kd value, that was usually around 0.7 nM, resulting in the binding of approximately 0.5% of the radioligand and a specific binding representing approximately 70% of the total binding. Nonspecific binding was defined as the amount of ^3[H]—(S)-4-[(ethyl-phenyl-amino)-methyl]-4,5-dihydro-oxazol-2-ylamine bound in the presence of 10 μM unlabeled ligand. All compounds were tested at a broad range of concentrations (10 pM to 10 μM) in duplicates. The test compounds (20 μl/well) were transferred into a 96 deep well plate (TreffLab), and 180 μl of HEPES-NaOH (20 mM, pH 7.4) containing MgCl2 (10 mM) and CaCl2 (2 mM) (binding buffer), 300 μl of the radioligand ^3[H]—(S)-4-[(ethyl-phenyl-amino)-methyl]-4,5-dihydro-oxazol-2-ylamine at a concentration of 3.3×Kd in nM and 500 μl of the membranes (resuspended at 60 μg protein per ml) added. The 96 deep well plates were incubated for 1 hr at 4° C. Incubations were terminated by rapid filtration through Unifilter-96 plates (Packard Instrument Company) and glass filters GF/C (Perkin Elmer) presoaked for 1 hr in polyethylenimine (0.3%) and washed 3 times with 1 ml of cold binding buffer. […]

T1 sequence (Q923Y9 whole entry): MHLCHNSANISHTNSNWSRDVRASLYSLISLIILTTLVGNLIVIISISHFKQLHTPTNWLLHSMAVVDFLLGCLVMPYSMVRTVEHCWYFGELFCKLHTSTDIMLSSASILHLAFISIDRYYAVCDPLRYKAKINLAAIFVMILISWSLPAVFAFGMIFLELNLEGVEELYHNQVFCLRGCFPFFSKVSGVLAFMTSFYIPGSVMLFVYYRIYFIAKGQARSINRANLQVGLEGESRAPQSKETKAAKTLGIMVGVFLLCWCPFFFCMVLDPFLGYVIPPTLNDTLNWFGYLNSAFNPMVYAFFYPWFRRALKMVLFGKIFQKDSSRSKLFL
T2 sequence (Q923Y8 whole entry): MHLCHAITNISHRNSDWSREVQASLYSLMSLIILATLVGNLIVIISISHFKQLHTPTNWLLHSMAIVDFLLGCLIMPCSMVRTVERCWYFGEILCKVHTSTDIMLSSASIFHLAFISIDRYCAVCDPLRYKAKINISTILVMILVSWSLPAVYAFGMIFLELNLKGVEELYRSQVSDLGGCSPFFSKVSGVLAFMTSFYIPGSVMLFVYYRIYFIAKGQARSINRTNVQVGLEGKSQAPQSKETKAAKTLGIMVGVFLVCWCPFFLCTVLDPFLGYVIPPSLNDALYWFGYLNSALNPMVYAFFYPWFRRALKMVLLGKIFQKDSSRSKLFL

Row | Ki (rat TAAR1) [µM] | Ki (mouse TAAR1) [µM] | Kd (rat TAAR1; rat TAAR1 membranes, saturation curve, usual value, read-out: dissociation constant (Kd) of the radioligand) [nM] | Kd (mouse TAAR1; mouse TAAR1 membranes, saturation curve, usual value, read-out: dissociation constant (Kd) of the radioligand) [nM] | Compound
1 | 0.0881 | 0.0046 |  |  | O=C(Nc1ccc([C@H]2CNCCO2)cc1F)c1cnc(OCC(F)(F)F)cn1 [Example 23, (S)—N-(2-Fluoro-4-(morpholin-2-yl)phenyl)-5-(2,2,2-trifluoroethoxy)pyrazine-2-carboxamide]
2 | 0.0197 | 0.0328 |  |  | O=C(Nc1ccc([C@@H]2CNCCO2)c(F)c1)c1cncc(C(F)(F)F)n1 [Example 6, (R)—N-(3-Fluoro-4-(morpholin-2-yl)phenyl)-6-(trifluoromethyl)pyrazine-2-carboxamide hydrochloride]
3 | 0.0625 | 0.0036 |  |  | O=C(Nc1ccc([C@H]2CNCCO2)c(F)c1)c1cnc(C2CC2)cn1 [Example 18, 5-Cyclopropyl-pyrazine-2-carboxylic acid ((S)-3-fluoro-4-morpholin-2-yl-phenyl)-amide hydrochloride]
4 | 0.0222 | 0.0028 |  |  | O=C(Nc1ccc([C@H]2CNCCO2)c(F)c1)c1cnc2ccccc2n1 [Example 14, (S)—N-(3-Fluoro-4-(morpholin-2-yl)phenyl)quinoxaline-2-carboxamide hydrochloride]
5 | 0.0053 | 0.0447 |  |  | O=C(Nc1ccc([C@@H]2CNCCO2)cc1F)c1cncc(OCC(F)(F)F)n1 [Example 29, (R)—N-(2-Fluoro-4-(morpholin-2-yl)phenyl)-6-(2,2,2-trifluoroethoxy)pyrazine-2-carboxamide]
6 | 0.0122 | 0.044 |  |  | O=C(Nc1ccc([C@H]2CNCCO2)cc1F)c1cncc(OCC(F)(F)F)n1 [Example 25, (S)—N-(2-Fluoro-4-(morpholin-2-yl)phenyl)-6-(2,2,2-trifluoroethoxy)pyrazine-2-carboxamide]
7 | 0.009 | 0.0115 |  |  | O=C(Nc1ccc([C@@H]2CNCCO2)c(F)c1)c1cnc(C(F)(F)F)cn1 [Example 1, (R)—N-(3-Fluoro-4-(morpholin-2-yl)phenyl)-5-(trifluoromethyl)pyrazine-2-carboxamide hydrochloride]
8 | 1.09 | 0.0204 |  |  | N#Cc1cc(NC(=O)c2cnc(C(F)(F)F)cn2)ccc1[C@H]1CNCCO1 [Example 3, (S)—N-(3-Cyano-4-(morpholin-2-yl)phenyl)-5-(trifluoromethyl)pyrazine-2-carboxamide hydrochloride]
9 |  |  | ~2.3 | ~0.7 | CCN(C[C@H]1COC(N)=N1)c1ccccc1 [^3[H]—(S)-4-[(ethyl-phenyl-amino)-methyl]-4,5-dihydro-oxazol-2-ylamine, reference compound]
10 | 0.11 | 0.0041 |  |  | CCOc1cnc(C(=O)Nc2ccc([C@H]3CNCCO3)c(F)c2)cn1 [Example 13, (S)-5-Ethoxy-N-(3-fluoro-4-(morpholin-2-yl)phenyl)pyrazine-2-carboxamide hydrochloride]
11 | 0.0037 | 0.0053 |  |  | O=C(Nc1ccc([C@@H]2CNCCO2)c(F)c1)c1cnc(OCC(F)(F)F)cn1 [Example 28, (R)—N-(3-Fluoro-4-(morpholin-2-yl)phenyl)-5-(2,2,2-trifluoroethoxy)pyrazine-2-carboxamide]
